Data as given in patent US11466044B2 (WAYNE STATE UNIVERSITY, priority 2017, dated 2022).
Converted amounts (≈) assume the structure as drawn. Like-named read-outs stand apart in the source and are kept apart here.

What was measured:
[1] = system: Enterobacter cloacae AG290; assay: MIC by broth microdilution, Enterobacter cloacae; assay type: cell-based; conditions: strain AG290 Enterobacter cloacae
N. gonorrhoeae = assay: Disk diffusion, N. gonorrhoeae; assay type: cell-based; conditions: 25 nmol
E coli wild type = assay: MIC by broth microdilution, wild type E coli; assay type: cell-based; conditions: for MIC: Escherichia coli
[2] = system: Klebsiella pneumonia AG215; assay: MIC by broth microdilution, Klebsiella pneumonia; assay type: cell-based; conditions: strain AG215 Klebsiella pneumonia
[3] = system: E coli carrying specific resistance determinants; assay: MIC by broth microdilution, E coli carrying specific resistance determinants; assay type: cell-based; conditions: for MIC: Escherichia coli
[4] = system: Acinetobacter baumannii pittii AG225; assay: MIC by broth microdilution, Acinetobacter baumannii; assay type: cell-based; conditions: strain AG225 Acinetobacter baumannii pittii
P aeruginosa = assay: MIC by broth microdilution, P aeruginosa isolates; assay type: cell-based, Pseudomonas aeruginosa; conditions: for MIC: Pseudomonas aeruginosa
M. abscessus = assay: MIC by broth microdilution, M. abscessus; assay type: cell-based; conditions: Mycobacteroides abscessus
[5] = system: A1555G mutant mitochondrial ribosome (human chimeric); assay: in-vitro translation assay, human chimeric ribosomes, A1555G mutant mitochondrial decoding site; assay type: biochemical; conditions: human mitochondrial decoding site with A1555G point mutation; read-out: IC50 Mitoch. A1555G
Source text: (§1) The antiribosomal activity of these compounds was investigated with cell-free translation assays using both wild type bacterial ribosomes and hybrid ribosomes carrying eukaryotic decoding A sites enabling the prediction of selectivity.

[6] = system: cytosolic ribosome (human chimeric); assay type: biochemical
Source text: as §1

[7] = system: mitochondrial ribosome (human chimeric); assay type: biochemical
Source text: as §1

MRSA = assay: MIC by broth microdilution, MRSA isolates; assay type: cell-based; conditions: Staphylococcus aureus, MRSA
M. smegmatis SZ380 = assay: MIC by broth microdilution, M. smegmatis; conditions: Mycolicibacterium smegmatis
[8] = system: wild type bacterial ribosomes; assay: in-vitro translation assay, bacterial ribosomes; assay type: biochemical
Source text: as §1

[9] = system: rabbit reticulocyte ribosomes; assay: in-vitro translation assay, rabbit reticulocyte ribosomes; assay type: biochemical; conditions: mammalian cytosolic ribosomes (rabbit)

CCC[C@@H]1C(CO)O[C@H](O[C@@H]2C(N)C[C@@H](NC(=O)[C@@H](O)CCN)C(O)[C@H]2O[C@@H]2O[C@H](CO)[C@H](O[C@H]3C[C@@H](CN)[C@@H](O)C(O)C3N)C2O)[C@@H](N)C1O (stereo partly shown) [Compound 187] was tested, and the “MIC AG290 E. cloacae” value [1] was 0.5 to 1 µg/mL, the “Disk diffusion 25 nmol N. gonorrhoeae” value (N. gonorrhoeae) was 11 mm and the “MIC AG160 E. coli WT” value (E coli wild type; clinical isolate AG160 WT, Table 2 (Example 4)) was 2 µg/mL (≈ 2.7 µM). For the same compound, the “MIC pH430 E. coli WT” value (E coli wild type; engineered strain pH430 WT, Table 2 (Example 4)) was 0.5-1 μg/ml, the “MIC AG212 E. coli” value (E coli wild type; strain AG212 E. coli (ATCC25922)) was 2 µg/mL (≈ 2.7 µM) and the “MIC AG215 K. pneumon” value [2] was 0.5 µg/mL (≈ 0.675 µM). The “MIC AG163 E. coli APH(3′)-I” value ([3]; clinical isolate AG163 APH(3′)-I, Table 2 (Example 4)) was 2 µg/mL (≈ 2.7 µM), the “MIC AG166 E. coli APH(3′)-II” value ([3]; clinical isolate AG166 APH(3′)-II, Table 2 (Example 4)) was 2 µg/mL (≈ 2.7 µM) and the “MIC AG037 E. coli APH(3′)-III” value ([3]; engineered strain AG037 APH(3′)-III, Table 2 (Example 4)) was 8 µg/mL (≈ 10.8 µM). The “MIC pH421 E. coli APH(3′)-I” value ([3]; engineered strain pH421 APH(3′)-I, Table 2 (Example 4)) was 4-8 μg/ml, the “MIC pH422 E. coli APH(3′)-II” value ([3]; engineered strain pH422 APH(3′)-II, Table 2 (Example 4)) was 0.5-1 μg/ml and the “MIC pH423 E. coli APH(3′)-VI” value ([3]; engineered strain pH423 APH(3′)-VI, Table 2 (Example 4)) was 1 μg/ml. For the same compound, the “MIC AG225 A. baumannii” value [4] was 2 µg/mL (≈ 2.7 µM) and the “MIC AG220 P. aerugin” value (P aeruginosa; strain AG220 Pseudomonas aeruginosa ATCC27853) was 2 to 4 µg/mL.

In the case of NC[C@H]1O[C@H](O[C@H]2[C@H](O[C@@H]3O[C@H](CO)[C@@H](O)[C@H]3O)[C@@H](O)[C@H](N)C[C@@H]2N)[C@H](N)[C@@H](O)[C@@H]1O [Ribostamycin, ribostamycin, reference compound], the MIC (M. abscessus; ATCC19977, ATCC 19977 WT, Table 5 (Example 3), read-out: MIC M. abscessus ATCC 19977 WT) is reported as 128 µg/mL (≈ 282 µM), the MIC (M. abscessus; read-out: MIC M. abscessus clinical isolate) is reported as 128 µg/mL (≈ 282 µM) and the MIC (M. abscessus; read-out: MIC M. abscessus engineered Δeis2) is reported as 32 µg/mL (≈ 70.4 µM). The IC50 [5] was 68 µM, the MIC ([1]; read-out: MIC AG290 E. cloacae) was 4 µg/mL (≈ 8.8 µM) and the IC50 ([6]; cytosolic, Table 3 (Example 1), read-out: IC50 Cyt) was 484 µM. It also gave an IC50 ([6]; ribosomes with a human cytosolic decoding site, read-out: IC50 Cytosolic) of 484 µM, an IC50 ([7]; mitochondrial, Table 3 (Example 1), read-out: IC50 Mit) of 443 µM and an IC50 ([7]; ribosomes with a human mitochondrial decoding site, read-out: IC50 Mitoch.) of 443 µM. For the same compound, the MIC (E coli wild type; ATCC25922, strain AG212 E. coli (ATCC25922), read-out: MIC AG212 E. coli) was 4 µg/mL (≈ 8.8 µM), the MIC (E coli wild type; WT, Table 3 (Example 1), read-out: MIC WT) was 2 µg/mL (≈ 4.4 µM) and the MIC (E coli wild type; WT, Table 5 (Example 3), read-out: MIC E. coli WT) was 2 µg/mL (≈ 4.4 µM). The MIC (E coli wild type; clinical isolate AG001, WT, read-out: MIC AG001 E. coli WT) was 4 µg/mL (≈ 8.8 µM), the MIC (E coli wild type; clinical isolate AG055, WT, read-out: MIC AG055 E. coli WT) was 2 µg/mL (≈ 4.4 µM) and the MIC (E coli wild type; clinical isolate AG160 WT, Table 2 (Example 4), read-out: MIC AG160 E. coli WT) was 4 µg/mL (≈ 8.8 µM). The MIC (E coli wild type; engineered strain pH430 WT, Table 2 (Example 4), read-out: MIC pH430 E. coli WT) was 2 µg/mL (≈ 4.4 µM), the MIC (MRSA; read-out: MIC AG039 MRSA AAC(6′)-I ANT(4′)-I) was > 128 µg/mL and the MIC (MRSA; read-out: MIC AG042 MRSA AAC(6′)-I ANT(4′)-I APH(2′)) was > 128 µg/mL. The MIC (MRSA; clinical isolate AG038, read-out: MIC AG038 MRSA) was 4 µg/mL (≈ 8.8 µM), the MIC (MRSA; clinical isolate AG044, read-out: MIC AG044 MRSA) was 8 µg/mL (≈ 17.6 µM) and the MIC ([2]; Klebsiella pneumoniae, read-out: MIC AG215 K. pneumon) was 2 µg/mL (≈ 4.4 µM). The MIC ([3]; read-out: MIC AG003 E. coli AAC(3)-II) was 4 µg/mL (≈ 8.8 µM), the MIC ([3]; read-out: MIC AG037 E. coli APH(3′)-III) was 32 to 64 µg/mL (≈ 70.4 to 141 µM) and the MIC ([3]; read-out: MIC AG163 E. coli APH(3′)-I) was > 128 µg/mL. For the same compound, the MIC ([3]; read-out: MIC AG166 E. coli APH(3′)-II) was > 128 µg/mL, the MIC ([3]; read-out: MIC APH(3)-VI) was > 64 µg/mL and the MIC ([3]; read-out: MIC APH(3′)-I) was > 64 µg/mL. The MIC ([3]; read-out: MIC APH(3′)-II) was > 64 µg/mL, the MIC ([3]; read-out: MIC APH(3′)-III) was 32 to 64 µg/mL (≈ 70.4 to 141 µM) and the MIC ([3]; read-out: MIC E. coli AG106 AAC(2′)-Ia) was 128 µg/mL (≈ 282 µM). The MIC ([3]; read-out: MIC E. coli pGB2armA armA) was 2 µg/mL (≈ 4.4 µM), the MIC ([3]; read-out: MIC E. coli pH434 AAC(2′)-Ib) was > 128 µg/mL and the MIC ([3]; read-out: MIC pH421 E. coli APH(3′)-I) was > 128 µg/mL. For the same compound, the MIC ([3]; read-out: MIC pH422 E. coli APH(3′)-II) was 128 to 256 µg/mL (≈ 282 to 563 µM), the MIC ([3]; read-out: MIC pH423 E. coli APH(3′)-VI) was > 128 µg/mL and the MIC (M. smegmatis SZ380; SZ380, read-out: MIC M. smegmatis SZ380 WT, SZ380 WT, Table 5 (Example 3)) was 8 µg/mL (≈ 17.6 µM). The MIC (M. smegmatis SZ380; SZ380, read-out: MIC SZ380 M. smegmatis, strain SZ380 Mycobacterium smegmatis) was 8 µg/mL (≈ 17.6 µM), the MIC [4] was 4 µg/mL (≈ 8.8 µM) and the IC50 ([8]; Mycobacterium smegmatis ribosomes, read-out: IC50 Bacterial) was 0.09 µM. The IC50 ([8]; bacterial ribosome, Table 3 (Example 1), read-out: IC50 Bac) was 0.09 µM, the IC50 [9] was 172 µM and the MIC (P aeruginosa; ATCC27853, read-out: MIC AG220 P. aerugin) was > 128 µg/mL. For the same compound, the MIC (P aeruginosa; read-out: MIC AG031 P. aer. APH(3′)-II) was > 128 µg/mL and the MIC (P aeruginosa; read-out: MIC AG032 P. aer. APH(3′)-II) was > 128 µg/mL.
